Experiments:
Assay type in all cases: in vivo, mouse
Conditions in all cases: agent given prior to neutrophil-activating therapy
B16 tumors = experiment: TUNEL staining of cell death in B16 tumors
Experimental: Tumors were dissected away from surrounding fat, fixed in 2% paraformaldehyde for 2 hours at 4° C., equilibrated in a 30% sucrose solution at 4° C., and embedded and frozen in O.C.T. Compound (Tissue-Tek). Slides were cut to […] and blocked with 1% BSA and 10% serum matched to the secondary antibody species. The following antibodies were used for immunofluorescence: PE anti-Ly6G (clone 1A8, BioLegend), DyLight 650 anti-gp75 (clone TA99, Bio X Cell, labeled using DyLight 650 NHS Ester (Thermo Scientific)), fluorescein anti-gp75 (clone TA99, Bio X Cell, labeled using NHS-Fluorescein (Thermo Scientific)), FITC anti-DNA/RNA damage (clone 15A3, recognizing 8-hydroxy-2′-deoxyguanosine/8-oxo-7,8-dihydroguanine/8-oxo-7,8-dihydroguanosine, Abcam), and AF647 anti-C3 (clone 11H9, Novus Biologicals). DAPI (Invitrogen) was stained at 1 μg/ml. FITC/fluorescein signal was amplified using AF488 anti-FITC (ThermoFisher Scientific), and PE was amplified using biotin anti-PE (clone PE001, BioLegend) followed by DyLight 594 streptavidin (BioLegend) or DyLight 649 streptavidin (BioLegend). Prior to use of biotinylated antibodies, endogenous biotin was blocked using the Avidin/Biotin Blocking Kit (Vector Laboratories). Prior to DNA/RNA damage staining, sections were permeabilized with 0.1% Triton X-100 in 0.1% sodium citrate. TUNEL (Terminal deoxynucleotidyl transferase dUTP nick end labeling) staining was performed using the In Situ Cell Death Detection Kit, TMR Red (Roche) according to the manufacturer's instructions. […] All parameters that were quantified were acquired with identical microscope settings and adjusted identically in Photoshop, and all adjustments were applied equally across the entire tumor. Quantification was performed in ImageJ, using the wand tool on the overlaid multichannel image to draw a border around the tumor and then measuring the percent area within that border with signal for the channel of the marker quantified.

LTB4 = LTB4 ELISA of B16 tumors
Experimental: LTB4 ELISA. Tumors were dissected away from surrounding fat 24 hours post-treatment and lysed in PBS using 3 mm zirconium beads (Benchmark Scientific) in the BeadBug Microtube Homogenizer (Benchmark Scientific) for 2 cycles of 45 seconds at 3000 rpm. Crude lysate was centrifuged for 15 minutes at 16000×g at 4° C. to obtain clarified lysate. Clarified lysate was deproteinized by ethanol precipitation by adding 4 volumes of 100% ethanol, incubating on ice for 5 minutes, and centrifuging for 10 minutes at 3000×g at 4° C. Deproteinized supernatant was transferred to a new tube, ethanol was removed by evaporation at room temperature, and samples were brought to the appropriate volume in ELISA assay buffer. LTB4 content was determined with the Leukotriene B4 ELISA kit (Cayman Chemical 520111) according to the manufacturer's instructions and read with a Victor X4 fluorescence microplate reader (PerkinElmer).
Ex vivo neutrophil LTB4 assay. B16 tumors were harvested from mice 12 hours after treatment with TNF+anti-CD40+anti-gp75 and digested with collagenase IV and DNase I as described above. […] Following the incubation, the supernatant was collected, centrifuged to remove cells and debris, and analyzed for LTB4 using the Leukotriene B4 ELISA kit (Cayman Chemical 520111) as described above.

neutrophils = experiment: Flow cytometry of neutrophils in B16 tumors and blood
Experimental: Tumors were digested with collagenase IV and DNase I as described above. Following digestion, tissue was mashed through a […] cell strainer (Falcon), washed, red blood cells were lysed with ACK buffer for 1 minute, and cells were washed again prior to antibody staining. Blood was harvested into PBS plus 20 mM EDTA by cardiac puncture or retro-orbital bleed, lysed in ACK buffer for 5 minutes, and washed prior to antibody staining. Bone marrow was harvested by grinding the femur and tibia in a mortar and pestle and mashing through a […] strainer (Falcon), or by flushing femurs with a syringe and needle, then lysed in ACK buffer for 5 minutes and washed prior to antibody staining. Spleens were harvested by mashing through a […] cell strainer (Falcon), then lysed in ACK buffer for 5 minutes and washed prior to antibody staining.
Live cells were stained with antibodies on ice for 20 minutes in FACS buffer (HBSS 1% BSA 5 mM EDTA) with Brilliant Stain Buffer Plus (BD). Following staining, cells were washed twice in FACS buffer and resuspended in 1 μg/ml DAPI plus AccuCount Fluorescent Particles (Spherotech) for absolute count determination. In some experiments, live cells were stained with Live/Dead Fixable Blue Stain (Invitrogen) in HBSS on ice for 20 minutes prior to antibody staining, and DAPI was not used. […]

`N#Cc1cc(-c2n[nH]c(-c3ccncc3)n2)ccn1` [topiroxostat] was tested, and the “effect of agent on treatment-induced tumor cell death” value (B16 tumors) was “reduced cell death”, the “effect of agent on LTB4 production” value (LTB4) was “did not prevent” and the “effect of agent on treatment-induced neutrophil tumor infiltration” value (neutrophils) was “did not prevent neutrophil infiltration”.

From patent publication US20250263496A1, “Neutrophil-Activating Therapy for the Treatment of Cancer” (The Board of Trustees of the Leland Stanford Junior …, priority 2024, published 2025)
